# Measured values as given in patent US20200383926A1, “ENTERIC COATED PHARMACEUTICAL COMPOSITION AND USE THEREOF” (SHIN ERA TECHNOLOGY CO. LTD., priority 2017, published 2020).
# Assay: Phosphate binding assay (molybdate colorimetry, OD700) at pH 8.3
# Conditions: KH2PO4 0.53M, room temperature (about 25° C.), 2 hours
# Description: Since the phosphate uptake in human body mostly takes place in the intestine instead of stomach, we tested the phosphate-binding ability of the aforesaid 60% deacetylation chitosan citrate (CHS-60L) and 90% deacetylation chitosan citrate (CHS-90L) in an environment of pH 8.3, which mimicked to the intestine environment in vivo.
# Briefly, KH2PO4 and the present chitosan citrate were mixed at room temperature (about 25° C.) for 2 hours. Then, 2 μl of the mixture of each group (and KH2PO4 without reaction with binding agents) was mixed with 120 μl of acetate buffer (0.1 N acetic acid and 0.025 N of CH3COONa), 12 μl of ascorbic acid (1 wt %), and […] of NH4MoO4 (1%, in 0.05 N H2SO4) at room temperature for 20 to 30 minutes. After that, the OD700 of the mixture was detected by spectrometer. The conventional phosphate binding agent, calcium carbonate, was used as positive control of the experiment.
structure (smiles),measurement,setting,value
O=C([O-])[O-].[Ca+2] [calcium carbonate],Binding ability (%),binding agent 10 mM,70.90%
same,Binding ability (%),binding agent 20 mM,75.40%
